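96-well plates; 48 h exposure; 5 concentrations. Endpoints by linear interpolation between flanking doses. Not reached: highest tested concentration assigned. Definition used: TGI = concentration required for complete inhibition of growth.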
Experiments:
Experiment in all cases: growth of human tumour cells (NCI), 48 h
[1] = test system: RPMI-8226 leukemia
[2] = test system: HCT-15 colon
[3] = test system: A549 NSCLC
[4] = test system: CCRF-CEM leukemia
[5] = test system: HOP-92 NSCLC
[6] = test system: UACC-62 melanoma
[7] = test system: SNB-75 CNS
[8] = test system: OVCAR-3 ovarian
[9] = test system: ACHN renal
[10] = test system: IGROV1 ovarian
[11] = test system: SN12C renal
[12] = test system: NCI/ADR-RES ovarian

Row | SMILES | TGI [1] [µM] | TGI [2] [µM] | TGI [3] [µM] | TGI [4] [µM] | TGI [5] [µM] | TGI [6] [µM] | TGI [7] [µM] | TGI [8] [µM] | TGI [9] [µM] | TGI [10] [µM] | TGI [11] [µM] | TGI [12] [µM]
1 | COc1cccc(/C=N/[N-]C(N)=O)c1[O-].[Cu+2].[OH3+].c1cnc2c(c1)ccc1cccnc12 | 91.4 | > 100 | 28.7 | 66.2 | 18.2 | 22.3 | 24.4 | 36.1 | 40.3 | 45.7 | > 100 | –
2 | O=S1c2ccccc2N=C(c2ccc3ccccc3c2)CC1c1ccccc1 (stereo unspecified) | 94.4 | 32.5 | 41.3 | 81.2 | > 100 | > 100 | 38.5 | – | 31.8 | 40.3 | 73.9 | –
3 | CCOc1cc(NC(C)=O)ccc1C(=O)N/N=C/c1ccco1 | > 100 | > 100 | – | > 100 | > 100 | > 100 | > 100 | > 100 | > 100 | > 100 | > 100 | > 100
4 | CCOC(=O)C(C)OC(=O)c1ccc(C)cc1 (stereo unspecified) | – | > 100 | > 100 | > 100 | > 100 | > 100 | > 100 | > 100 | > 100 | > 100 | > 100 | –
5 | CN(C)c1ccc(/C=C2\C[C@H]3[C@@H]4CCC5=CC(=O)CC[C@]5(C)[C@H]4CC[C@]3(C)C2=O)cc1 | > 100 | > 100 | > 100 | – | 66.1 | > 100 | > 100 | > 100 | > 100 | > 100 | > 100 | > 100
6 | COC(=O)c1c(O)ccc2c1c1c(n2Cc2ccccn2)C(=O)c2ccccc2C1 | 59.9 | > 100 | > 100 | > 100 | – | > 100 | > 100 | > 100 | – | > 100 | > 100 | > 100
7 | O=C(COC(c1ccc(F)cc1)c1ccc(F)cc1)N1CCN(CCCc2ccccc2)CC1 | 26.3 | 11.4 | 15.2 | > 100 | 8.02 | 16.5 | – | 13.7 | 13.7 | 19 | 11.3 | 12.8
8 | CC(C)c1ccc2c(c1)[C@@]1(C)CC[C@H](C)C(C)(C)C1CC2 (stereo partly specified) | 41.1 | 34 | 32.1 | 47.7 | 36.3 | 29.9 | 31.6 | 63 | 32.6 | > 100 | 31.8 | 36.6
